Target: hQC (Homo sapiens (Human), UniProt Q16769)
Assay: QC inhibitor assay (fluorometric / spectrophotometric QC activity assays)
Format: biochemical
Experimental: Excitation/emission wavelengths were 320/410 nm.
This novel assay was used to determine the kinetic parameters for most of the QC substrates. […] Samples consisted of the respective QC substrate, 0.3 mM NADH, 14 mM α-Ketoglutaric acid and 30 U/ml glutamate dehydrogenase in a final volume of 250 μl. Reactions were started by addition of QC and persued by monitoring of the decrease in absorbance at 340 nm for 8-15 min.
All samples were measured at 30° C., using either the […]uor Plus or the Sunrise (both from TECAN) reader for microplates. Kinetic data was evaluated using GraFit software.
For inhibitor testing, the sample composition was the same as described above, except of the putative inhibitory compound added. For a rapid test of QC-inhibition, samples contained 4 mM of the respective inhibitor and a substrate concentration at 1 KM. For detailed investigations of the inhibition and determination of K,-values, influence of the inhibitor on the auxiliary enzymes was investigated first. […] The inhibitory constant was evaluated by fitting the set of progress curves to the general equation for competitive inhibition using GraFit software.

hQC, sequence (Q16769 29-361): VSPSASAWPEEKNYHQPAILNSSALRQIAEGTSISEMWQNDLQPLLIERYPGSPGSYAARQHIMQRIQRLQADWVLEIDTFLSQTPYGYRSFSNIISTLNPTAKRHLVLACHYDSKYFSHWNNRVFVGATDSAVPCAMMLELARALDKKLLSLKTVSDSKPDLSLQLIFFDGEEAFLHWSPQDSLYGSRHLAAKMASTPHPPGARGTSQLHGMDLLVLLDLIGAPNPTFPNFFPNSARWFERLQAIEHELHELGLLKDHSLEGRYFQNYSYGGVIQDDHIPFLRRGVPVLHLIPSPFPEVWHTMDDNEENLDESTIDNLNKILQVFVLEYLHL

IC50, < 10 µM:
O=C1NCC(C2CCCCC2)N1c1ccc2[nH]cnc2c1 (centres unmarked) [Example 2, 1-(1H-benzo[d]imidazol-5-yl)-5-cyclohexylimidazolidin-2-one]
O=C1NCC(c2ccccc2)N1c1ccc2[nH]cnc2c1 (centres unmarked) [Example 3, 1-(1H-benzo[d]imidazol-5-yl)-5-phenylimidazolidin-2-one]
COc1ccc(C2CNC(=O)N2c2ccc3[nH]cnc3c2)cc1 (centres unmarked) [Example 5, 1-(1H-benzo[d]imidazol-5-yl)-5-(4-methoxyphenyl)imidazolidin-2-one]
CC(C)[C@H]1COC(=O)N1c1ccc2[nH]cnc2c1 [Example 68, (S)-3-(1H-benzo[d]imidazol-5-yl)-4-isopropyloxazolidin-2-one]
COc1ccc(C2CCCN2c2ccc3[nH]cnc3c2)cc1 (centres unmarked) [Example 102, 5-(2-(4-methoxyphenyl)pyrrolidin-1-yl)-1H-benzo[d]imidazole]
O=C1CSC(c2ccsc2)N1c1ccc2nc[nH]c2c1 (centres unmarked) [Example 116, 3-(1H-benzo[d]imidazol-6-yl)-2-(thiophen-3-yl)thiazolidin-4-one]
S=C1CSC(c2ccccc2)N1c1ccc2[nH]cnc2c1 (centres unmarked) [Example 118, 3-(1H-benzo[d]imidazol-5-yl)-2-phenylthiazolidine-4-thione]
O=C1NCC(c2ccc(N3CCCCC3)cc2)N1c1ccc2[nH]cnc2c1 (centres unmarked) [Example 175, 1-(1H-benzo[d]imidazol-5-yl)-5-(4-(piperidin-1-yl)phenyl)imidazolidin-2-one]
